CO/N=C(\C(=O)Sc1nc2ccccc2s1)c1csc(N)n1
Details | solubility (mole fraction)
in 1,2-dichloroethane, 277.83 K | 0.000358
in 1,2-dichloroethane, 282.77 K | 0.000458
in 1,2-dichloroethane, 287.63 K | 0.000619
in 1,2-dichloroethane, 292.84 K | 0.000876
in 1,2-dichloroethane, 297.85 K | 0.00118
in 1,2-dichloroethane, 302.64 K | 0.00154
in THF, 278.4 K | 0.0243
in THF, 283.75 K | 0.0259
in THF, 288.8 K | 0.028
in THF, 293.25 K | 0.0311
in THF, 298.06 K | 0.0352
in THF, 302.95 K | 0.0397
in acetone, 278.32 K | 0.00245
in acetone, 283.31 K | 0.00286
in acetone, 288.15 K | 0.00334
in acetone, 293.2 K | 0.0039
in acetone, 298.54 K | 0.00472
in acetone, 303.28 K | 0.0057
in acetonitrile, 279.45 K | 0.000216
in acetonitrile, 283.46 K | 0.000262
in acetonitrile, 288.45 K | 0.000342
in acetonitrile, 292.98 K | 0.000451
in acetonitrile, 297.47 K | 0.000581
in acetonitrile, 302.45 K | 0.000761
in dichloromethane, 278.6 K | 0.000719
in dichloromethane, 283.64 K | 0.000967
in dichloromethane, 288.46 K | 0.00128
in dichloromethane, 294.03 K | 0.00171
in dichloromethane, 298.71 K | 0.00217
in dichloromethane, 303.44 K | 0.00267

— BigSolDB 2.1
